PubChem BioAssay AID248 (DTP/NCI, 2004)
Several values for one entry are separate records, joined by “and”; a condition that tells them apart may be missing. Identical values can stand only once. Inconclusive results and toxic doses are left out. Rule as the data show it: active = T/C of 150% or more; inactive = T/C below 125%.

Test system: L1210 leukemia ip in BDF1 mice, survival T/C
Test: NCI In Vivo Anticancer Drug Screen. Data for tumor model L1210 Leukemia (intraperitoneal) in B6D2F1 (BDF1) mice
Conditions: endpoint: mean survival time, higher = longer survival
Summary of the method: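 Each compound was tested against a transplantable tumor grown in mice. The endpoint was survival, with treated animals benchmarked against vehicle controls as a simple ratio.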

[1] = dose: 25.0 mg/kg/injection, schedule: Q01DX009 (ip), vehicle: saline with Tween-80
[2] = dose: 50.0 mg/kg/injection, schedule: Q01DX009 (ip), vehicle: saline with Tween-80
[3] = dose: 50.0 mg/kg/injection, schedule: Q04DX003 (ip), vehicle: saline with Tween-80
[4] = dose: 100.0 mg/kg/injection, schedule: Q04DX003 (ip), vehicle: saline with Tween-80
[5] = dose: 200.0 mg/kg/injection, schedule: Q04DX003 (ip), vehicle: saline with Tween-80
[6] = dose: 100.0 mg/kg/injection, schedule: Q04DX002 (ip), vehicle: saline with Tween-80
[7] = dose: 200.0 mg/kg/injection, schedule: Q04DX002 (ip), vehicle: saline with Tween-80
[8] = dose: 400.0 mg/kg/injection, schedule: Q04DX002 (ip), vehicle: saline with Tween-80
[9] = dose: 100.0 mg/kg/injection, schedule: Q01DX009 (ip), vehicle: saline with Tween-80
[10] = dose: 200.0 mg/kg/injection, schedule: Q01DX009 (ip), vehicle: saline with Tween-80
[11] = dose: 100.0 mg/kg/injection, schedule: Q04DX002 (ip), vehicle: Klucel (hydroxypropylcellulose) (HPC)
[12] = dose: 200.0 mg/kg/injection, schedule: Q04DX002 (ip), vehicle: Klucel (hydroxypropylcellulose) (HPC)
[13] = dose: 400.0 mg/kg/injection, schedule: Q04DX002 (ip), vehicle: Klucel (hydroxypropylcellulose) (HPC)
[14] = dose: 100.0 mg/kg/injection, schedule: Q01DX009 (ip), vehicle: Klucel (hydroxypropylcellulose) (HPC)
[15] = dose: 100.0 mg/kg/injection, schedule: Q04DX003 (ip), vehicle: Klucel (hydroxypropylcellulose) (HPC)
[16] = dose: 200.0 mg/kg/injection, schedule: Q01DX009 (ip), vehicle: Klucel (hydroxypropylcellulose) (HPC)
[17] = dose: 200.0 mg/kg/injection, schedule: Q04DX003 (ip), vehicle: Klucel (hydroxypropylcellulose) (HPC)
[18] = dose: 400.0 mg/kg/injection, schedule: Q04DX003 (ip), vehicle: Klucel (hydroxypropylcellulose) (HPC)
[19] = dose: 100.0 mg/kg/injection, schedule: Q04DX003 (ip), vehicle: saline
[20] = dose: 200.0 mg/kg/injection, schedule: Q04DX003 (ip), vehicle: saline
[21] = dose: 400.0 mg/kg/injection, schedule: Q04DX003 (ip), vehicle: saline
[22] = dose: 100.0 mg/kg/injection, schedule: Q01DX009 (ip), vehicle: saline

Measured: T/C

[N-]=[N+]=NCCCCCCCCCCN=[N+]=[N-]
inactive: dose: 75.0 mg/kg/injection, schedule: Q04DX003 (ip), vehicle: saline 102 % of control | dose: 150.0 mg/kg/injection, schedule: Q04DX003 (ip), vehicle: saline 101 % of control | dose: 300.0 mg/kg/injection, schedule: Q04DX003 (ip), vehicle: saline 91 % of control

CCCCCCCCSCCO
inactive: dose: 12.0 mg/kg/injection, schedule: Q01DX009 (ip), vehicle: saline with Tween-80 104 % of control | [1] 101 % of control | [2] 95 % of control | [3] 98 % of control | [4] 96 % of control | [5] 94 % of control | dose: 400.0 mg/kg/injection, schedule: Q04DX003 (ip), vehicle: saline with Tween-80 98 % of control

Oc1ccc(Cl)cc1C=Nc1ccc2c(c1)OCO2
inactive: [6] 91 % of control | [7] 88 % of control | [8] 91 % of control

[Cl][Hg][c]1ccc2ccccc2c1
inactive: dose: 6.25 mg/kg/injection, schedule: Q01DX005 (ip), vehicle: saline with Tween-80 104 % of control | dose: 12.5 mg/kg/injection, schedule: Q01DX005 (ip), vehicle: saline with Tween-80 97 % of control | dose: 12.5 mg/kg/injection, schedule: Q01DX009 (ip), vehicle: saline with Tween-80 92 % of control | dose: 25.0 mg/kg/injection, schedule: Q01DX005 (ip), vehicle: saline with Tween-80 104 % of control

C=CC[Si](CC=C)(CC=C)OCC
inactive: dose: 150.0 mg/kg/injection, schedule: Q01DX001 (ip), vehicle: other 95 % of control | dose: 300.0 mg/kg/injection, schedule: Q01DX001 (ip), vehicle: other 101 % of control

CC1=CC(=O)C(c2ccccc2)CC1 (configuration not stated) (tested in a mixture with another compound)
inactive: [2] 96 % of control | [9] 96 % of control | [10] 96 % of control

O=C(CC(O)(C(F)(F)F)C(F)(F)F)c1cccs1
inactive: [2] 109 % of control | [3] 98 % of control | [9] 102 % of control | [4] 98 % of control | [5] 96 % of control

O=S(c1ccccc1)c1ccccc1
inactive: dose: 75.0 mg/kg/injection, schedule: Q01DX009 (ip), vehicle: Klucel (hydroxypropylcellulose) (HPC) 98 % of control | [11] 102 % of control | dose: 150.0 mg/kg/injection, schedule: Q01DX009 (ip), vehicle: Klucel (hydroxypropylcellulose) (HPC) 102 % of control | [12] 98 % of control | dose: 300.0 mg/kg/injection, schedule: Q01DX009 (ip), vehicle: Klucel (hydroxypropylcellulose) (HPC) 95 % of control | [13] 112 % of control

CCCCNC(=S)NN=C(N)N
inactive: [6] 96 % of control | [7] 100 % of control | [8] 92 % of control

O=C(Nc1ccc(Cl)cc1)c1ccccc1
inactive: dose: 50.0 mg/kg/injection, schedule: Q01DX009 (ip), vehicle: Klucel (hydroxypropylcellulose) (HPC) 105 % of control | [14] 100 % of control | [15] 100 % of control | [16] 93 % of control | [17] 101 % of control | [18] 91 % of control

C/C(=N\O)C(=O)c1ccccc1
inactive: [14] 98 % of control | [15] 107 % of control | [19] 103 % of control | [16] 100 % of control | [17] 100 % of control | [20] 107 % of control | dose: 400.0 mg/kg/injection, schedule: Q01DX009 (ip), vehicle: Klucel (hydroxypropylcellulose) (HPC) 93 % of control | [18] 104 % of control | [21] 108 % of control

O=CNc1ncn[nH]1
inactive: dose: 50.0 mg/kg/injection, schedule: Q01DX001 (ip), vehicle: saline 98 % of control | dose: 100.0 mg/kg/injection, schedule: Q01DX001 (ip), vehicle: saline 98 % of control | dose: 200.0 mg/kg/injection, schedule: Q01DX001 (ip), vehicle: saline 104 % of control | dose: 400.0 mg/kg/injection, schedule: Q01DX001 (ip), vehicle: saline 104 % of control

COc1ccc(C(=O)C(=O)c2ccc(OC)cc2)cc1
inactive: [11] 98 % of control | [12] 98 % of control | [13] 95 % of control

Nc1ncnc(N)c1NC(=O)c1cccc(Br)c1
inactive: dose: 6.25 mg/kg/injection, schedule: Q04DX003 (ip), vehicle: saline with Tween-80 96 % of control | dose: 12.5 mg/kg/injection, schedule: Q04DX003 (ip), vehicle: saline with Tween-80 96 % of control | dose: 25.0 mg/kg/injection, schedule: Q04DX003 (ip), vehicle: saline with Tween-80 100 % of control and 103 % of control

COC(=N)c1ccc(Cl)cc1
inactive: [9] 88 % of control | [10] 93 % of control

Cc1ccc(S(=O)(=O)OCCCl)cc1
inactive: [6] 98 % of control | [7] 109 % of control

CC(C)c1ccc(/C=C2\C=Nc3ccccc32)cc1
inactive: dose: 100.0 mg/kg/injection, schedule: Q04DX002 (ip), vehicle: gum acacia 95 % of control | dose: 200.0 mg/kg/injection, schedule: Q04DX002 (ip), vehicle: gum acacia 92 % of control | dose: 400.0 mg/kg/injection, schedule: Q04DX002 (ip), vehicle: gum acacia 95 % of control

O=S(=O)(F)c1c(Cl)cccc1CBr
inactive: [1] 100 % of control | [2] 96 % of control | [9] 86 % of control

CCOC(=O)/C(=C\c1ccccn1)C(C)=O
inactive: dose: 25.0 mg/kg/injection, schedule: Q04DX003 (ip), vehicle: saline 102 % of control | dose: 50.0 mg/kg/injection, schedule: Q04DX003 (ip), vehicle: saline 102 % of control | [19] 102 % of control

CC(C)=CCC(=O)OC(CC=C(C)C)(c1ccccc1)C(C)CN(C)C (configuration not stated)
inactive: dose: 25.0 mg/kg/injection, schedule: Q01DX009 (ip), vehicle: saline 100 % of control | dose: 50.0 mg/kg/injection, schedule: Q01DX009 (ip), vehicle: saline 90 % of control | [22] 89 % of control

CC(OC(=O)Oc1ccccc1)c1ccccc1 (configuration not stated)
inactive: [15] 98 % of control | [17] 107 % of control | [18] 98 % of control

COc1cc(C(=O)NNS(=O)(=O)c2ccccc2)cc(OCc2ccccc2)c1OC
inactive: dose: 100.0 mg/kg/injection, schedule: Q04DX002 (ip), vehicle: saline 97 % of control | dose: 200.0 mg/kg/injection, schedule: Q04DX002 (ip), vehicle: saline 97 % of control | dose: 400.0 mg/kg/injection, schedule: Q04DX002 (ip), vehicle: saline 95 % of control

COC(=O)c1cccc(O)c1
inactive: dose: 100.0 mg/kg/injection, schedule: Q01DX001 (ip), vehicle: saline with Tween-80 94 % of control | dose: 200.0 mg/kg/injection, schedule: Q01DX001 (ip), vehicle: saline with Tween-80 91 % of control | dose: 400.0 mg/kg/injection, schedule: Q01DX001 (ip), vehicle: saline with Tween-80 98 % of control

NC(=O)N/N=C\C=N/NC(N)=O
inactive: dose: 100.0 mg/kg/injection, schedule: Q01DX001 (ip), vehicle: Klucel (hydroxypropylcellulose) (HPC) 92 % of control | dose: 200.0 mg/kg/injection, schedule: Q01DX001 (ip), vehicle: Klucel (hydroxypropylcellulose) (HPC) 92 % of control

CN(C)C(=O)NCC[N+](C)(C)C
inactive: [22] 100 % of control | [19] 99 % of control | dose: 200.0 mg/kg/injection, schedule: Q01DX009 (ip), vehicle: saline 106 % of control | [20] 92 % of control | dose: 400.0 mg/kg/injection, schedule: Q01DX009 (ip), vehicle: saline 97 % of control | [21] 94 % of control

O=C(Nc1cccc(F)c1)OCc1ccco1
inactive: dose: 100.0 mg/kg/injection, schedule: Q01DX009 (sc), vehicle: olive oil, sesame oil, peanut oil 95 % of control | dose: 200.0 mg/kg/injection, schedule: Q01DX009 (sc), vehicle: olive oil, sesame oil, peanut oil 96 % of control | dose: 400.0 mg/kg/injection, schedule: Q01DX009 (sc), vehicle: olive oil, sesame oil, peanut oil 95 % of control
